Assay results taken from paper PMC7056649 (Heliyon, 2020).

Columns and labels:
[1] = tested on: membrane-bound α-glucosidases on differentiated Caco-2 cells; assay: Membrane bound α-glucosidase inhibitory activity in differentiated Caco-2 cells; type: cell-based, human; conditions: 25 mM maltose, 0.1-100 μg/ml, 4 h; comparison in words
[2] = target: Saccharomyces cerevisiae α-glucosidase (Saccharomyces cerevisiae, UniProt P53341); assay: α-Glucosidase inhibitory activity and kinetic analysis; type: biochemical; conditions: for Ki: yeast α-glucosidase hydrolysis of PNPG; for Mode of Inhibition: PNPG substrate, determined by Lineweaver-Burk plots
[3] = target: T1, porcine pancreatic α-amylase (Sus scrofa, UniProt P00690); assay: α-Amylase inhibitory activity; type: biochemical; conditions: up to 600 μg/mL
T1 sequence (P00690 16-511): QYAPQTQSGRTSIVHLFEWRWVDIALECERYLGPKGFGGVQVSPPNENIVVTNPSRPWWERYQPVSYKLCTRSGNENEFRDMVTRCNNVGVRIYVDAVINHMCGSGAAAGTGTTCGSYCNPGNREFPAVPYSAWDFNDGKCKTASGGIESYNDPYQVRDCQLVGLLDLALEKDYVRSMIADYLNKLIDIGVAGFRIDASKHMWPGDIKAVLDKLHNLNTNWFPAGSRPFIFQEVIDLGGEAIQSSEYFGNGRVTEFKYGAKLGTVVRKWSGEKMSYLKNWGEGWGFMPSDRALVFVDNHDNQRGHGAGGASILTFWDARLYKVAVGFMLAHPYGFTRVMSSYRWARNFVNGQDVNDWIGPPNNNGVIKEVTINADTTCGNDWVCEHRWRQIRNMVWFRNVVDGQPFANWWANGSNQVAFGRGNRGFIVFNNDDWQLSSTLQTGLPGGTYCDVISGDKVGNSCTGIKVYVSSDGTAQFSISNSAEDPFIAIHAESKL

Caco-2 cells = conditions: ref Ahn et al., 2017, Mei et al., 2012; cited from earlier work

Sequence of Saccharomyces cerevisiae α-glucosidase (P53341 whole entry): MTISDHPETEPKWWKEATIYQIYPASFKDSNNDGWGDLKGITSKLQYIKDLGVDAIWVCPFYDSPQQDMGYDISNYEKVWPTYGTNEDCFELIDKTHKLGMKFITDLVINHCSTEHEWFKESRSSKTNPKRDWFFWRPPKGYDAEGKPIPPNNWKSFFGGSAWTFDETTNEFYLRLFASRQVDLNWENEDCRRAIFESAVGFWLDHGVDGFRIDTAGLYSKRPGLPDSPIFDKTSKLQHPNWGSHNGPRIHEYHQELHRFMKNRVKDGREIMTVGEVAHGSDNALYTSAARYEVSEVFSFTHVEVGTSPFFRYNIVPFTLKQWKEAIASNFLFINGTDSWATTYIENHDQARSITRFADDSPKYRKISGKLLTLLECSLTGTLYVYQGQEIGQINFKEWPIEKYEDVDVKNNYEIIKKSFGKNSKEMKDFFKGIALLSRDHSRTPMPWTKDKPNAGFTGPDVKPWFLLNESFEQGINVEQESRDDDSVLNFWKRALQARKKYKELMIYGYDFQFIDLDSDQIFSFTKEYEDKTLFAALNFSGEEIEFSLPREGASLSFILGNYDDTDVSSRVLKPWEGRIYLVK

| Compound | inhibition of maltose hydrolysis in differentiated Caco-2 cells [1] | IC50 ([2]; IC50, substrate PNPG) | Ki ([2]; Dixon plots, value in brackets) | Ki ([2]; determined by Dixon plots) | Mode of Inhibition [2] | Mode of Inhibition ([2]; listed as oxyresveratrol) | inhibition of α-amylase [3] | re-export rate from Caco-2 cells (Caco-2 cells) |
| --- | --- | --- | --- | --- | --- | --- | --- | --- |
| C[C@H]1O[C@H](O[C@H]2[C@H](O)[C@@H](O)[C@@H](O[C@H]3[C@H](O)[C@@H](O)C(O)O[C@@H]3CO)O[C@@H]2CO)[C@H](O)[C@@H](O)[C@@H]1N[C@H]1C=C(CO)[C@@H](O)[C@H](O)[C@H]1O (stereo partly drawn) [Acarbose, acarbose, reference compound] | far more susceptible to acarbose |  |  |  |  |  |  |  |
| Oc1cc(O)cc(/C=C/c2ccc(O)cc2O)c1 [Oxyresveratrol, trans-3,5,2′,4′-tetrahydroxystilbene] | lesser potency compared to acarbose | 203 µM | 223 µM | 223 µM | Non-competitive | non-competitively | no detectable inhibition | high |
